Measurements published in patent US11021467B2, “Phosphatidylinositol 3-kinase inhibitors” (Gilead Sciences, Inc., priority 2014, dated 2021).

Columns and labels:
Assay in all cases: TR-FRET enzymatic activity assay against PI3K isoforms
Assay type in all cases: biochemical
PI3Kβ = PI3Kβ (Homo sapiens (Human), UniProt P42338); conditions: PI3Kβ, TR-FRET, 2×Km ATP, 30 minutes at 25° C.
Source text: (§1) The compounds of formula (I) were characterized for their enzymatic activity against the PI3K isoforms. […] TR-FRET monitored the formation of 3,4,5-inositol triphosphate molecule that competed with fluorescently labeled PIP3 for binding to the GRP-1 pleckstrin homology domain protein.

PI3Kγ = PI3Kγ (Homo sapiens (Human), UniProt P48736); conditions: 2×Km ATP, 30 minutes at 25° C.
PI3Kγ, sequence (P48736 whole entry): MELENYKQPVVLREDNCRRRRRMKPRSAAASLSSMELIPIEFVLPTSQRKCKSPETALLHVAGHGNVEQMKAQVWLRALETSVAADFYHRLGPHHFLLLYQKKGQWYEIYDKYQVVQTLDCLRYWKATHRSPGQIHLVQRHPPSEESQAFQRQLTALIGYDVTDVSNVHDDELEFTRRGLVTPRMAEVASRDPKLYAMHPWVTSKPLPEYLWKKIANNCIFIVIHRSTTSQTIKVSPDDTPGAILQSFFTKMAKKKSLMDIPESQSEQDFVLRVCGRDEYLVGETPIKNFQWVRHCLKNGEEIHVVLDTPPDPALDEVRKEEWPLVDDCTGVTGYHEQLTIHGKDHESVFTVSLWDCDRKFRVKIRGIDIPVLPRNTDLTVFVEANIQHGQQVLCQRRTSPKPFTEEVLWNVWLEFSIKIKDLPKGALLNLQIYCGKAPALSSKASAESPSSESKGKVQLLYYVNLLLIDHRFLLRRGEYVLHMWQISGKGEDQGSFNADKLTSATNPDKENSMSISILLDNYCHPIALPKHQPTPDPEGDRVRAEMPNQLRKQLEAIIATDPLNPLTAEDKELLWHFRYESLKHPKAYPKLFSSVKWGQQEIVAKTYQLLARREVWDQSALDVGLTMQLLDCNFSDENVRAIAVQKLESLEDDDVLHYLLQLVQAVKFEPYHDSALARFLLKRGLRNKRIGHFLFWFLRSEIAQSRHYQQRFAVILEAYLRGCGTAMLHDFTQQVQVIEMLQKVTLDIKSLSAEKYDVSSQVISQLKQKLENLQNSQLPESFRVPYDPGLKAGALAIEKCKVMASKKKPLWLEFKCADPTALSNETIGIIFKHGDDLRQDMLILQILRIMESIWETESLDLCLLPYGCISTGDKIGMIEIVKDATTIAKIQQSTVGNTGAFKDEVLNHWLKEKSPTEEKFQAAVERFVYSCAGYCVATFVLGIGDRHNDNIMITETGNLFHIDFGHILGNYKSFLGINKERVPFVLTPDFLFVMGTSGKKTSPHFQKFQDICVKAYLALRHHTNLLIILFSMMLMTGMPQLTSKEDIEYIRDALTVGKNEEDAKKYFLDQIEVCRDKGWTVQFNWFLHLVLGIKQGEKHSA
Source text: as §1

PI3Kδ = PI3Kδ (Homo sapiens (Human), UniProt O00329); conditions: 2×Km ATP, 30 minutes at 25° C.
PI3Kδ, sequence (O00329 whole entry): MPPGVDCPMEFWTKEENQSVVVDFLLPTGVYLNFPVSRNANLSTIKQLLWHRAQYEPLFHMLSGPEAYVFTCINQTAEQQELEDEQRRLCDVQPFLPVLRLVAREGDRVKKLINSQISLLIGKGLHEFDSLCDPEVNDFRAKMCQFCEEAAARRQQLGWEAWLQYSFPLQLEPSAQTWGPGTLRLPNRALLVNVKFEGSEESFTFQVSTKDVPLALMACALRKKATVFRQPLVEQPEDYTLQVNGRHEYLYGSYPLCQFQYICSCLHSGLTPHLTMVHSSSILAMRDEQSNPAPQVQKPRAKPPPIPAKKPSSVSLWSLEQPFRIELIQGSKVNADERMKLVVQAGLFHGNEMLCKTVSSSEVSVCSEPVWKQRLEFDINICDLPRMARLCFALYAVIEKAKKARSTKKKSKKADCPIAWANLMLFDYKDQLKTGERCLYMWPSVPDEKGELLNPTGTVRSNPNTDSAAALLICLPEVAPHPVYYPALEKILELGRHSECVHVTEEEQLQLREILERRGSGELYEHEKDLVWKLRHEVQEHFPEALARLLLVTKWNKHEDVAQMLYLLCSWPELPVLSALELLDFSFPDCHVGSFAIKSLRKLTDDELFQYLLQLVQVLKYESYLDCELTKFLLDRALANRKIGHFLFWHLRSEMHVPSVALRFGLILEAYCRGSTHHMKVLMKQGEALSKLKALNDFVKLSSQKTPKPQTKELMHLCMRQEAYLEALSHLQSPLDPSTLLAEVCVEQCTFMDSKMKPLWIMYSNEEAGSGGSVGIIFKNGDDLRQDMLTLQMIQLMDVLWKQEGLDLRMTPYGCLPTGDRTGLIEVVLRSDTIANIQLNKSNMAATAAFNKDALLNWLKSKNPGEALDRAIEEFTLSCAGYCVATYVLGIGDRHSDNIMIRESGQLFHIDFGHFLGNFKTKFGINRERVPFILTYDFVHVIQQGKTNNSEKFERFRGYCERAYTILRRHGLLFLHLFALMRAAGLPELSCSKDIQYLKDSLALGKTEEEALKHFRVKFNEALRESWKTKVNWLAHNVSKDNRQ
PI3Kδ, sequence (P27986 whole entry partner): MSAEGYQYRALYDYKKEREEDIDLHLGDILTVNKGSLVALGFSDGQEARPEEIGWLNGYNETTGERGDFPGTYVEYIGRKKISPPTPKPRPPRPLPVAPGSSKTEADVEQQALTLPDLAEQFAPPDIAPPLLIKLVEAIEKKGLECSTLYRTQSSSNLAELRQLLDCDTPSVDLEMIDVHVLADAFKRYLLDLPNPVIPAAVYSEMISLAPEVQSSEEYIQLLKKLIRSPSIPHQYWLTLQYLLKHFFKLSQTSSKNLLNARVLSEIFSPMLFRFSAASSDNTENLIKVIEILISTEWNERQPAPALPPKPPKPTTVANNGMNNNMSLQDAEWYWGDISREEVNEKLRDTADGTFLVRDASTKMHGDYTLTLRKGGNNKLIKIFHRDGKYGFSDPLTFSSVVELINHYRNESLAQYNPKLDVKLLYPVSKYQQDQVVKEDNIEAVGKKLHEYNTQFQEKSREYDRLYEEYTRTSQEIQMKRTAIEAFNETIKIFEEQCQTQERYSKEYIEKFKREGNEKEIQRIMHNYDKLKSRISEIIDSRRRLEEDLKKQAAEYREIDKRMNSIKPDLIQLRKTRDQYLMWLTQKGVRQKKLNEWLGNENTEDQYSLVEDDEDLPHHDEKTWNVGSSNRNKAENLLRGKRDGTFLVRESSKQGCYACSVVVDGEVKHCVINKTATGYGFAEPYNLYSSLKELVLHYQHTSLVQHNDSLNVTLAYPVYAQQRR
Source text: as §1

PI3Kβ, sequence (P42338 whole entry, the tested form may be a part, canonical isoform): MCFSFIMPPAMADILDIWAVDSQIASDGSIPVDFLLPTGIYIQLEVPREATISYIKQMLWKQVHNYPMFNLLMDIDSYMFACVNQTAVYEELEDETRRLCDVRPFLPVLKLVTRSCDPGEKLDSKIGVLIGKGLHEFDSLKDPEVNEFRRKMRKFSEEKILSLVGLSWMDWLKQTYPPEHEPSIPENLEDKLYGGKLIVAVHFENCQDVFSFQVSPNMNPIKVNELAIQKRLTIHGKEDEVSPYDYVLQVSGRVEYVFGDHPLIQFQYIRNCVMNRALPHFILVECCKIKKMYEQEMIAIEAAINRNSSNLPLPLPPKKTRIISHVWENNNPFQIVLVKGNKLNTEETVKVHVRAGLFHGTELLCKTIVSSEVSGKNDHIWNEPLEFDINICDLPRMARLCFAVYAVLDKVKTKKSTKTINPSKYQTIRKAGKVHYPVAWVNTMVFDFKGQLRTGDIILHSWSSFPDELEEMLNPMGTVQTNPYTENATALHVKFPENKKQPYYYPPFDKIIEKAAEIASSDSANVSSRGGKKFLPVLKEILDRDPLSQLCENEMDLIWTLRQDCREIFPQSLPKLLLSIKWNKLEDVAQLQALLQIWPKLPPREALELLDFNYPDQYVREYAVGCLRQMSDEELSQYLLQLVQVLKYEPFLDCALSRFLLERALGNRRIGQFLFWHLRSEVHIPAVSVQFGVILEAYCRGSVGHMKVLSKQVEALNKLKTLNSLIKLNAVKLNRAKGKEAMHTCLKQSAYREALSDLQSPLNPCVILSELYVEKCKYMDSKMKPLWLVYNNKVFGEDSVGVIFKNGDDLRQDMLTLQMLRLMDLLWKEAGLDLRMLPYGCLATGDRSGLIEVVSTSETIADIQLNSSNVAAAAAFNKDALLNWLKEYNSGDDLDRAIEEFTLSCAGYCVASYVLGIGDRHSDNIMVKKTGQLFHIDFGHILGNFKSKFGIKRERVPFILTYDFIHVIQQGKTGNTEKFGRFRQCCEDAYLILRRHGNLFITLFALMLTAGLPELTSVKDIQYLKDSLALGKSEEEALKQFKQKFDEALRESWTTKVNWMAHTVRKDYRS
PI3Kβ, sequence (P27986 whole entry partner, the tested form may be a part, canonical isoform): as the sequence (P27986 whole entry partner) above

Structure (SMILES)	IC50 (PI3Kβ) [nM]	IC50 (PI3Kγ) [nM]	IC50 (PI3Kδ) [nM]
CC(=O)NCCCn1c([C@@H](Nc2nc(N)nc(N)c2C#N)C2CC2)nc2cccc(Cl)c2c1=O [Compound 53, (S)—N-(3-(5-chloro-2-(cyclopropyl((2,6-diamino-5-cyanopyrimidin-4-yl)amino)methyl)-4-oxoquinazolin-3(4H)-yl)propyl)acetamide]	9	190	2
N#Cc1c(N)nc(N)nc1N[C@H](c1nc2cccc(Cl)c2c(=O)n1CCCNC1CCC1)C1CC1 [Compound 54, (S)-2,4-diamino-6-(((5-chloro-3-(3-(cyclobutylamino)propyl)-4-oxo-3,4-dihydroquinazolin-2-yl)(cyclopropyl)methyl)amino)pyrimidine-5-carbonitrile]	5	830	0.4
N#Cc1c(N)nc(N)nc1N[C@H](c1nc2cccc(Cl)c2c(=O)n1CCCNC1COC1)C1CC1 [Compound 55, (S)-2,4-diamino-6-(((5-chloro-3-(3-(oxetan-3-ylamino)propyl)-4-oxo-3,4-dihydroquinazolin-2-yl)(cyclopropyl)methyl)amino)pyrimidine-5-carbonitrile]	4	280	0.5
N#Cc1c(N)nc(N)nc1N[C@H](c1nc2cccc(Cl)c2c(=O)n1CCCNC1CCC(F)(F)CC1)C1CC1 [Compound 56, (S)-2,4-diamino-6-(((5-chloro-3-(3-((4,4-difluorocyclohexyl)amino)propyl)-4-oxo-3,4-dihydroquinazolin-2-yl)(cyclopropyl)methyl)amino)pyrimidine-5-carbonitrile]	4	540	0.4
C[C@H](Nc1ncnc(N)c1C#N)c1nc2cccc(Cl)c2c(=O)n1CCCN(C)C [Compound 57, (S)-4-amino-6-((1-(5-chloro-3-(3-(dimethylamino)propyl)-4-oxo-3,4-dihydroquinazolin-2-yl)ethyl)amino)pyrimidine-5-carbonitrile]	480	≥ 10000	6
C[C@H](Nc1nc(N)nc(N)c1C#N)c1nc2cccc(Cl)c2c(=O)n1CCN(C)C [Compound 58, (S)-2,4-diamino-6-((1-(5-chloro-3-(2-(dimethylamino)ethyl)-4-oxo-3,4-dihydroquinazolin-2-yl)ethyl)amino)pyrimidine-5-carbonitrile]	460	6600	24
NC(=O)CCCCn1c([C@@H](Nc2nc(N)nc(N)c2Cl)C2CC2)nc2cccc(Cl)c2c1=O [Compound 59, (S)-5-(5-chloro-2-(cyclopropyl((2,6-diamino-5-chloropyrimidin-4-yl)amino)methyl)-4-oxoquinazolin-3(4H)-yl)pentanamide]	500	2200	8
C[C@H](Nc1nc(N)nc(N)c1C#N)c1nc2cccc(Cl)c2c(=O)n1CCCN(C)Cc1ccccc1 [Compound 60, (S)-2,4-diamino-6-((1-(3-(3-(benzyl(methyl)amino)propyl)-5-chloro-4-oxo-3,4-dihydroquinazolin-2-yl)ethyl)amino)pyrimidine-5-carbonitrile]	150	6400	4
Cc1nc(N)nc(N[C@@H](C)c2nc3cccc(Cl)c3c(=O)n2CCCN(C)Cc2ccccc2)c1C#N [Compound 61, (S)-2-amino-4-((1-(3-(3-(benzyl(methyl)amino)propyl)-5-chloro-4-oxo-3,4-dihydroquinazolin-2-yl)ethyl)amino)-6-methylpyrimidine-5-carbonitrile]	140	6600	7
C[C@H](Nc1nc(N)nc(N)c1C#N)c1nc2cccc(Cl)c2c(=O)n1CCCN(C)CC(F)(F)F [Compound 62, (S)-2,4-diamino-6-((1-(5-chloro-3-(3-(methyl(2,2,2-trifluoroethyl)amino)propyl)-4-oxo-3,4-dihydroquinazolin-2-yl)ethyl)amino)pyrimidine-5-carbonitrile]	320	960	4
N#CCCn1c([C@@H](Nc2nc(N)nc(N)c2Cl)C2CC2)nc2cccc(Cl)c2c1=O [Compound 63, (S)-3-(5-chloro-2-(cyclopropyl((2,6-diamino-5-chloropyrimidin-4-yl)amino)methyl)-4-oxoquinazolin-3(4H)-yl)propanenitrile]	640	800	2
N#Cc1c(N)nc(N)nc1N[C@H](c1nc2cccc(Cl)c2c(=O)n1CCCCC(N)=O)C1CC1 [Compound 64, (S)-5-(5-chloro-2-(cyclopropyl((2,6-diamino-5-cyanopyrimidin-4-yl)amino)methyl)-4-oxoquinazolin-3(4H)-yl)pentanamide]	12	110	1

The remaining lines, values ahead:

IC50 (PI3Kβ) [nM]	IC50 (PI3Kγ) [nM]	IC50 (PI3Kδ) [nM]	Structure (SMILES)
7	470	1	N#Cc1c(N)nc(N)nc1N[C@H](c1nc2c(Cl)ccc(Cl)c2c(=O)n1CCCC(N)=O)C1CC1 [Compound 65, (S)-4-(5,8-dichloro-2-(cyclopropyl((2,6-diamino-5-cyanopyrimidin-4-yl)amino)methyl)-4-oxoquinazolin-3(4H)-yl)butanamide]
4	97	1	N#Cc1c(N)nc(N)nc1N[C@H](c1nc2cccc(Cl)c2c(=O)n1CCCC(N)=O)C1CC1 [Compound 66, (S)-4-(5-chloro-2-(cyclopropyl((2,6-diamino-5-cyanopyrimidin-4-yl)amino)methyl)-4-oxoquinazolin-3(4H)-yl)butanamide]
520	1000	5	NC(=O)CCn1c([C@@H](Nc2nc(N)nc(N)c2Cl)C2CC2)nc2cccc(Cl)c2c1=O [Compound 68, (S)-3-(5-chloro-2-(cyclopropyl((2,6-diamino-5-chloropyrimidin-4-yl)amino)methyl)-4-oxoquinazolin-3(4H)-yl)propanamide]
49	1300	2	NC(=O)CCCn1c([C@@H](Nc2nc(N)nc(N)c2Cl)C2CC2)nc2cccc(Cl)c2c1=O [Compound 69, (S)-4-(5-chloro-2-(cyclopropyl((2,6-diamino-5-chloropyrimidin-4-yl)amino)methyl)-4-oxoquinazolin-3(4H)-yl)butanamide]
240	≥ 10000	34	C[C@H](Nc1ncnn2ccnc12)c1nc2cccc(Cl)c2c(=O)n1CCCN [Compound 71, (S)-3-(3-aminopropyl)-5-chloro-2-(1-(imidazo[2,1-f][1,2,4]triazin-4-ylamino)ethyl)quinazolin-4(3H)-one]
35	7900	12	C[C@H](Nc1ncnc2scnc12)c1nc2cccc(Cl)c2c(=O)n1CCCN [Compound 72, (S)-3-(3-aminopropyl)-5-chloro-2-(1-(thiazolo[5,4-d]pyrimidin-7-ylamino)ethyl)quinazolin-4(3H)-one]
21	9400	6	C[C@H](Nc1ncnc(N)c1C#N)c1nc2cccc(Cl)c2c(=O)n1CCCN [Compound 73, (S)-4-amino-6-((1-(3-(3-aminopropyl)-5-chloro-4-oxo-3,4-dihydroquinazolin-2-yl)ethyl)amino)pyrimidine-5-carbonitrile]
17	1620	1	CC(C)NCC(O)CCn1c([C@H](C)Nc2nc(N)nc(N)c2C#N)nc2cccc(Cl)c2c1=O (stereo partly drawn) [Compound 74, 2,4-diamino-6-(((1S)-1-(5-chloro-3-(3-hydroxy-4-(isopropylamino)butyl)-4-oxo-3,4-dihydroquinazolin-2-yl)ethyl)amino)pyrimidine-5-carbonitrile]
19	2300	1	C[C@H](Nc1nc(N)nc(N)c1C#N)c1nc2cccc(Cl)c2c(=O)n1CCC(O)CNC(C)(C)C (stereo partly drawn) [Compound 75, 2,4-diamino-6-(((1S)-1-(3-(4-(tert-butylamino)-3-hydroxybutyl)-5-chloro-4-oxo-3,4-dihydroquinazolin-2-yl)ethyl)amino)pyrimidine-5-carbonitrile]
46	160	2	C[C@H](Nc1nc(N)nc(N)c1C#N)c1nc2cccc(Cl)c2c(=O)n1Cc1cc[nH]n1 [Compound 76, (S)-4-((1-(3-((1H-pyrazol-3-yl)methyl)-5-chloro-4-oxo-3,4-dihydroquinazolin-2-yl)ethyl)amino)-2,6-diaminopyrimidine-5-carbonitrile]
860	7000	33	C[C@H](Nc1ncnc(N)c1C#N)c1nc2cccc(Cl)c2c(=O)n1Cc1cc[nH]n1 [Compound 77, (S)-4-((1-(3-((1H-pyrazol-3-yl)methyl)-5-chloro-4-oxo-3,4-dihydroquinazolin-2-yl)ethyl)amino)-6-aminopyrimidine-5-carbonitrile]
920	3000	49	C[C@H](Nc1ncnn2ccnc12)c1nc2cccc(Cl)c2c(=O)n1Cc1cc[nH]n1 [Compound 78, (S)-3-((1H-pyrazol-3-yl)methyl)-5-chloro-2-(1-(imidazo[2,1-f][1,2,4]triazin-4-ylamino)ethyl)quinazolin-4(3H)-one]
40	380	2	C[C@H](Nc1nc(N)nc(N)c1C#N)c1nc2cccc(Cl)c2c(=O)n1Cc1cn[nH]c1 [Compound 79, (S)-4-((1-(3-((1H-pyrazol-4-yl)methyl)-5-chloro-4-oxo-3,4-dihydroquinazolin-2-yl)ethyl)amino)-2,6-diaminopyrimidine-5-carbonitrile]
1100	2400	27	C[C@H](Nc1nc(N)nc(N)c1C#N)c1nc2cccc(Cl)c2c(=O)n1Cc1ncc[nH]1 [Compound 80, (S)-4-((1-(3-((1H-imidazol-2-yl)methyl)-5-chloro-4-oxo-3,4-dihydroquinazolin-2-yl)ethyl)amino)-2,6-diaminopyrimidine-5-carbonitrile]
